pIC50: −log10 of the molar value. Several values for one entry are separate records, joined by “and”; a condition that tells them apart may be missing. Equal entries are not always repeated. Structures can show the parent of a compound that is named as a salt. Where two headings read alike, the source gives them in different places.
Experiments:
[1] = biological target: T1, human GST-p38 kinase alpha (Homo sapiens, UniProt Q16539); assay: p38 kinase in vitro assay, second format, phosphorylation of EGFRP with 33P-ATP; format: biochemical; conditions: read-out: p38α Kinase Assay IC50
T1 construct: The coding region of the human p38a cDNA was obtained by PCR-amplification from RNA isolated from the human monocyte cell line THP.1; made in house; host or cells: E. coli DH10B
Experimental: A second assay format was also employed that is based on p38 kinase alpha induced phosphorylation of EGFRP (epidermal growth factor receptor peptide, a 21 mer) in the presence of ^33P-ATP. Compounds were tested in 10 fold serial dilutions over the range of 100 μM to 0.001 μM in 10% DMSO. Each concentration of inhibitor was tested in triplicate. Compounds were evaluated in 50 μl reaction volumes in the presence of 25 mM Hepes pH 7.5, 10 mM magnesium acetate, 4% glycerol, 0.4% bovine serum albumin, 0.4 mM DTT, 50 μM unlabeled ATP, 25 μg EGFRP (200 μM), and 0.05 uCi gamma ^33P-ATP. Reactions were initiated by addition of 0.09 μg of activated, purified human GST-p38 kinase alpha. Activation was carried out using GST-MKK6 (5:1, p38: MKK6) for one hour at 30° C. in the presence of 50 μM ATP. Following incubation for 60 minutes at room temperature, the reaction was stopped by addition of 150 μl of AG 1×8 resin in 900 mM sodium formate buffer, pH 3.0 (1 volume resin to 2 volumes buffer). The mixture was mixed three times with pipetting and the resin was allowed to settle. A total of 50 μl of clarified solution head volume was transferred from the reaction wells to Microlite-2 plates. 150 μl of Microscint 40 was then added to each well of the Microlite plate, and the plate was sealed, mixed, and counted.

[2] = system: human TNF; assay: TNF inhibition: human whole blood assay; format: cell-based; conditions: Homo sapiens
Experimental: Human peripheral blood is obtained in heparinized tubes. A 190 μL aliquot of blood is placed in each well of a 96 well u-bottom plate. […] After one hour of incubation at 37° C., […] of lipopolysaccharide (Salmonella typhosa, Sigma) in phosphate buffered saline is added resulting in a final concentration of […]. After four to five hours of incubation at 37° C., the supernatants are harvested and assayed at 1:10 or 1:20 dilutions for human TNF using ELISA.

[3] = system: TNF-α; assay: Rat assay: LPS-challenged rats, serum TNF-α by ELISA; format: in vivo; conditions: Rattus norvegicus, po; for inhibition in vivo at 20 mg/kg: Table 9, dose 20 mg/kg
[4] = biological target: T2, human p38 kinase alpha (Homo sapiens, UniProt Q16539); assay: p38 kinase in vitro assay, phosphorylation of biotinylated PHAS-I with gamma 32P-ATP; format: biochemical; conditions: read-out: P38 alpha kinase IC50
T2 construct: The coding region of the human p38a cDNA was obtained by PCR-amplification from RNA isolated from the human monocyte cell line THP.1; GST (N); made in house; host or cells: E. coli DH10B
Method in brief: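 Radiometric filter-capture read-out: streptavidin plates trap biotin-PHAS-I labelled by activated (MKK6) human p38α from γ-32P-ATP. Buffer 25 mM HEPES pH 7.5, 10 mM magnesium acetate, 50 μM cold ATP; reactions 1 h or overnight at 30 °C; inhibitors 10-fold dilutions 100 to 0.001 μM, triplicates, 1% DMSO.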

[5] = Table 8, human whole blood, LPS, read-out: TNF Inhibition-Human Whole Blood Assay
[6] = Table 9, human whole blood, LPS, read-out: TNF Inhibition-Human Whole Blood Assay
[7] = TNF production, LPS-stimulated human whole blood, read-out: Human Whole Blood IC50
[8] = 5 mpk oral gavage, 4 h before LPS challenge, read-out: Rat LPS Model % Inhibition @ dose @ predose time

T2 sequence (Q16539 whole entry): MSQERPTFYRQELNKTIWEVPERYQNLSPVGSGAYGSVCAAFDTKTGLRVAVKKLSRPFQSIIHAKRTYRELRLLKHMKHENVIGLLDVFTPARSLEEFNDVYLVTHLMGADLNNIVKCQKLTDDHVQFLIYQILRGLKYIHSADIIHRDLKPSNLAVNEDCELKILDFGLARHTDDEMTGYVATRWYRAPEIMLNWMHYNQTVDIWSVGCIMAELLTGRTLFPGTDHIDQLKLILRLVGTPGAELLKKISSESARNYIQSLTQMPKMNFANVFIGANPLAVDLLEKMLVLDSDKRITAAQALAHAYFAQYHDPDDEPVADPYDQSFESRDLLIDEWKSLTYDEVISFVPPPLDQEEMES
T1 sequence (Q16539 whole entry): as above

SMILES | pIC50 ([1]; Table 8, 10% DMSO) | pIC50 [2, 5] | pIC50 [4] | pIC50 [2, 7] | inhibition in vivo at 5 mg/kg [3, 8] [%] | further results
Clc1ccc(-c2[nH]nc(NC3CCNCC3)c2-c2ccncc2)cc1 [Example A-332, N-[5-(4-chlorophenyl)-4-(4-pyridinyl)-3H-pyrazol-3-yl]-4-piperidineamine, trihydrochloride, monohydrate] | 7.82 and > 7.00 | 6.35 |  |  |  | inhibition in vivo at 1 mg/kg ([3]; Table 8, dose 1.0 mg/kg, read-out: Rat LPS Assay % Inhibition): 33%; inhibition in vivo at 3 mg/kg ([3]; Table 8, dose 3.0 mg/kg, read-out: Rat LPS Assay % Inhibition): 26%; inhibition in vivo at 5 mg/kg ([3]; Table 8, dose 5.0 mg/kg, read-out: Rat LPS Assay % Inhibition): 25%; inhibition in vivo at 10 mg/kg ([3]; Table 8, dose 10.0 mg/kg): -85%
CN1CCC(Nc2n[nH]c(-c3ccc(F)cc3)c2-c2ccncc2)CC1 [Example A-338, N-[5-(4-fluorophenyl)-4-(pyridinyl)-1H-pyrazol-3-yl]-1-methyl-4-piperidinamine] | 7.74 | 7.23 |  |  |  | 
Fc1ccc(-c2n[nH]c(N3CCC(N4CCCC4)CC3)c2-c2ccncc2)cc1 [Example A-357, 4-[3-(4-fluorophenyl)-5-(4-(1-pyrrolidinyl)-1-piperidinyl]-1H-pyrazol-4-yl]pyridine, trihydrochloride] |  |  |  |  |  | pIC50 ([1]; Table 9, 10% DMSO): 6.92; pIC50 [2, 6]: 6.60; inhibition in vivo at 20 mg/kg [3]: 74%
CCN(CC)CCNc1cc(-c2c[nH]nc2-c2ccc(F)cc2)ccn1 [Example A-374, N,N-diethyl-N′-[4-[3-(4-fluorophenyl)-1H-pyrazol-4-yl]-2-pyridinyl]-1,2-ethanediamine] |  |  |  |  |  | pIC50 ([1]; Table 9, 10% DMSO): 6.42; pIC50 [2, 6]: 6.51; inhibition in vivo at 1 mg/kg ([3]; Table 9, dose 1 mg/kg, read-out: Rat LPS Assay % Inhibition): 3%; inhibition in vivo at 5 mg/kg ([3]; Table 9, dose 5 mg/kg, read-out: Rat LPS Assay % Inhibition): 0%; inhibition in vivo at 20 mg/kg [3]: 88%
CCOC(=O)N1CCC(Nc2n[nH]c(-c3ccc(F)cc3)c2-c2ccncc2)CC1 [Example A-337, Ethyl 4-[[5-(4-fluorophenyl)-4-(4-pyridinyl)-1H-pyrazol-3-yl]amino]-1-piperidinecarboxylate, monohydrate] | 5.87 | < 4.60 |  |  |  | 
Clc1ccc(-c2[nH]nc(N3CCN(c4ccccc4)CC3)c2-c2ccncc2)cc1 [Example A-335, 1-[5-(4-chlorophenyl)-4-(4-pyridinyl)-1H-pyrazol-3-yl]-4-phenylpiperazine] | 4.05 | < 4.60 |  |  |  | 
Fc1ccc(-c2n[nH]c(CC3CCNCC3)c2-c2ccncc2)cc1 [Example A-315, 4-[3-(4-fluorophenyl)-5-(4-piperidinylmethyl)-1H-pyrazol-4-yl]pyridine] | 7.31 | 5.76 |  |  |  | 
CC(=O)N1CCC(c2[nH]nc(-c3ccc(F)cc3)c2-c2ccncc2)CC1 [Example C-113] |  |  | 7.09 | 5.57 | 77 | 
CN(C)[C@H]1CC[C@@H](c2[nH]nc(-c3ccc(F)cc3)c2-c2ccncc2)CC1 [Example C-99, 5-(cis-4-N,N-DIMETHYLAMINOCYCLOHEXYL)-4-(4-PYRIDYL)-3-(4-FLUOROPHENYL)PYRAZOLE] |  |  | 7.21 | 6.42 | 36 | 
COCCN1CCC(c2[nH]nc(-c3ccc(Cl)cc3)c2-c2ccncc2)CC1 [Example C-79] |  |  | 7.35 | 6.28 | 83 | 
Nc1ccc(Cc2[nH]nc(-c3ccc(Cl)cc3)c2-c2ccncc2)cc1 [Example C-116, 5-(4-AMINOBENZYL)-4-(4-PYRIDYL)-3-(4-CHLOROPHENYL)PYRAZOLE] |  |  | 6.37 | 6.30 | 53 | 
N=C(N)N1CCC(c2[nH]nc(-c3ccc(F)cc3)c2-c2ccncc2)CC1 [Example C-108] |  |  | 7.70 | 6.14 | 0 | 
CC(=O)N1CCCC(c2[nH]nc(-c3ccc(F)cc3)c2-c2ccncc2)C1 (stereo not shown) [Example C-138] |  |  | 6.55 | 6.17 | 26 | 
